Measured values from ChEMBL document CHEMBL5653593 (Clin Sci (Lond), 2002).
pIC50, pKi: −log10 of the molar value.

Key:
[1] = target: T1, Endothelin receptor type B (Homo sapiens, UniProt P24530); test: Antagonist activity at human ETB receptor transfected in CHO cell membrane […]; format: functional, cell membranes
T1 sequence (P24530 whole entry): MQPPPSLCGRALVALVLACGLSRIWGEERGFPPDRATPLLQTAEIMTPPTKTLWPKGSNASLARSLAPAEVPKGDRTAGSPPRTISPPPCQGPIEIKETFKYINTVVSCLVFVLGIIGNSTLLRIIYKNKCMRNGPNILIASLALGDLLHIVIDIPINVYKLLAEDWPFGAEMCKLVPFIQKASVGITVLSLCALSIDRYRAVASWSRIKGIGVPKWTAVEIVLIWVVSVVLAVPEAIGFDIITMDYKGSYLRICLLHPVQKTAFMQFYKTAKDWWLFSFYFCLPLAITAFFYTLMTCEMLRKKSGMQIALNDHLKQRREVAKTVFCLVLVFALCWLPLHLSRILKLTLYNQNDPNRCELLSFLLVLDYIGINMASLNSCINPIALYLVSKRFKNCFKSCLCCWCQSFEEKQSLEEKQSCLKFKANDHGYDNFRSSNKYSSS

[2] = target: T1, Endothelin receptor type B; test: Binding affinity to human ETB receptor transfected in CHO cell membrane assessed as inhibition constant incubated for 3 hrs by 125I-labelled ET-1 saturation binding assay; format: cell membranes
Endothelin-1 receptor [3] = target: T2, Endothelin-1 receptor (Rattus norvegicus, UniProt P26684); test: Antagonist activity at ETA receptor in rat MMQ cells assessed as inhibition of phosphatidylinositol hydrolysis by myo-[3H]inositol radioactivity based assay; format: functional, cell-based
T2 sequence (P26684 whole entry): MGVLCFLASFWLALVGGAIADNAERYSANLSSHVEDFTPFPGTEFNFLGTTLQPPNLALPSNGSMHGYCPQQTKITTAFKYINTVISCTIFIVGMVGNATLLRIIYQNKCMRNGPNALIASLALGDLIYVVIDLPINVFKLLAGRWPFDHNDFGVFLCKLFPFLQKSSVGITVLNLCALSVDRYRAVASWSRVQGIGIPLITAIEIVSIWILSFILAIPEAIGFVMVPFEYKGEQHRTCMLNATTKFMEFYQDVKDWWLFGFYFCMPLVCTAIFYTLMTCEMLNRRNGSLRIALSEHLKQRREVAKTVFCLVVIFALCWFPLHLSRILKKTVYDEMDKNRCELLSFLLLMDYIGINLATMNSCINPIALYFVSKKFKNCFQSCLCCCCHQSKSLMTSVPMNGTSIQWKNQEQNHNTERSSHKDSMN

Endothelin-1 receptor [4] = target: T3, Endothelin-1 receptor (Homo sapiens, UniProt P25101); test: Binding affinity to human ETA receptor transfected in CHO cell membrane assessed as inhibition constant incubated for 3 hrs by 125I-labelled ET-1 saturation binding assay; format: cell membranes
T3 sequence (P25101 whole entry): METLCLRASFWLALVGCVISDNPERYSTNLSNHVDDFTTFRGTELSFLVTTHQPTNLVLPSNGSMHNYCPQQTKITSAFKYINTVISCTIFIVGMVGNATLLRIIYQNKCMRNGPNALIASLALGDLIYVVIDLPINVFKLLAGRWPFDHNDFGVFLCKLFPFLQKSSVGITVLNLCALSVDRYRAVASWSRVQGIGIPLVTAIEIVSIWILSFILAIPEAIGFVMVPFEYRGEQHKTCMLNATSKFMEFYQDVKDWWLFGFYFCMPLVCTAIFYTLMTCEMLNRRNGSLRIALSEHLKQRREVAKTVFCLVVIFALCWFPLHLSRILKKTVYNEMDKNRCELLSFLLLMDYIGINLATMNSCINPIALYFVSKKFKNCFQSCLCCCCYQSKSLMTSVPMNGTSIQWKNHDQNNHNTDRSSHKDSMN

Endothelin-1 receptor [5] = target: T3, Endothelin-1 receptor; test: Antagonist activity at human ETA receptor transfected in CHO cell membrane assessed as inhibition of 125I-labelled ET-1 binding to receptor incubated for 3 hrs by competition binding assay; format: functional, cell membranes

pIC50 [1] | pKi [2] | pIC50 (Endothelin-1 receptor [3]) | pKi (Endothelin-1 receptor [4]) | pIC50 (Endothelin-1 receptor [5]) | Structure (SMILES)
8.95 | 8.91 | – | – | – | CCCCCS(=O)(=O)N(CCC)CCN1C[C@H](c2ccc3c(c2)OCO3)[C@@H](C(=O)O)[C@@H]1c1ccc(OC)c(F)c1
9.23 | – | ≤ 6.15 | 5.25 | 5.37 | CCCOc1ccc([C@H]2[C@H](C(=O)O)[C@@H](c3ccc4c(c3)OCO4)CN2CC(=O)Nc2c(CC)cccc2CC)cc1 [A-192621]
– | – | 9.23 | – | – | CCCCN(CCCC)C(=O)CN1C[C@H](c2cc(OC)c3c(c2)OCO3)[C@@H](C(=O)O)[C@@H]1CC(C)(C)CCC [ABT-546]
